ChEMBL document CHEMBL3885881, “DrugMatrix”

Species: Rattus norvegicus
Assay: DrugMatrix - Regimen: Daily Repeat
Assay type: toxicity, organism-based, Sprague-Dawley
Set-up: regimen Daily Repeat, gender Male, age 6-8 weeks
Conditions: in vivo, po, 1700 mg/kg, route oral GAVAGE, dose level High, vehicle .5 % CMC; for ABSOLUTE BASOPHIL / ABSOLUTE EOSINOPHIL / ABSOLUTE LYMPHOCYTE / ABSOLUTE MONOCYTE / ABSOLUTE SEGMENTED NEUTROPHIL / BASOPHIL / EOSINOPHIL / ERYTHROCYTE COUNT / HEMATOCRIT / HEMOGLOBIN / LEUKOCYTE COUNT / LYMPHOCYTE / MEAN CORPUSCULAR HEMOGLOBIN / MEAN CORPUSCULAR HEMOGLOBIN CONCENTRATION / MEAN CORPUSCULAR VOLUME / MONOCYTE / NEUTROPHIL / NUCLEATED RED BLOOD CELLS / PLATELET COUNT: tissue Blood; for ALANINE AMINOTRANSFERASE / ALBUMIN / ALKALINE PHOSPHATASE / ASPARTATE AMINOTRANSFERASE / BLOOD UREA NITROGEN / CARBON DIOXIDE / CHLORIDE / CHOLESTEROL / CREATINE PHOSPHOKINASE / CREATININE / GLUCOSE / LACTATE DEHYDROGENASE / LIPASE / PHOSPHORUS / POTASSIUM / SODIUM / TOTAL BILIRUBIN / TOTAL PROTEIN / URIC ACID: tissue Plasma

## O=C(O)c1ccccc1 [BENZOIC ACID]
72 h, time 3 day
  ABSOLUTE BASOPHIL: 0 CELLS/uL
  ABSOLUTE EOSINOPHIL: 95.33 CELLS/uL
  ABSOLUTE LYMPHOCYTE: 13599.67 CELLS/uL
  ABSOLUTE MONOCYTE: 51.33 CELLS/uL
  ABSOLUTE SEGMENTED NEUTROPHIL: 1753.67 CELLS/uL
  BASOPHIL: 0%
  EOSINOPHIL: 0.67%
  ERYTHROCYTE COUNT: 6 x10E6/uL
  HEMATOCRIT: 35.93%
  HEMOGLOBIN: 14.17 G/DL
  LEUKOCYTE COUNT: 15.5 x10E3/uL
  LYMPHOCYTE: 87.67%
  MEAN CORPUSCULAR HEMOGLOBIN: 23.6 pg
  MEAN CORPUSCULAR HEMOGLOBIN CONCENTRATION: 39.43 G/DL
  MEAN CORPUSCULAR VOLUME: 59.9 fL
  MONOCYTE: 0.33%
  NEUTROPHIL: 11.33%
  NUCLEATED RED BLOOD CELLS: 0 /100WBC
  PLATELET COUNT: 1304 x10E3/uL
  ALANINE AMINOTRANSFERASE: 84.67 u/L
  ALBUMIN: 4.3 G/DL
  ALKALINE PHOSPHATASE: 341.67 u/L
  ASPARTATE AMINOTRANSFERASE: 125.33 u/L
  BLOOD UREA NITROGEN: 16 mg/dL
  CARBON DIOXIDE: 30.67 mmol/L
  CHLORIDE: 97.33 MEQ/L
  CHOLESTEROL: 63.67 mg/dL
  CREATINE PHOSPHOKINASE: 240.33 u/L
  CREATININE: 0.2 mg/dL
  GLUCOSE: 149 mg/dL
  LACTATE DEHYDROGENASE: 314.33 u/L
  LIPASE: 9.33 u/L
  PHOSPHORUS: 13.87 mg/dL
  POTASSIUM: 6.31 MEQ/L
  SODIUM: 144.83 MEQ/L
  TOTAL BILIRUBIN: 0.23 mg/dL
  TOTAL PROTEIN: 5.73 G/DL
  URIC ACID: 1.6 mg/dL
120 h, time 5 day
  ABSOLUTE BASOPHIL: 0 CELLS/uL
  ABSOLUTE EOSINOPHIL: 54.33 CELLS/uL
  ABSOLUTE LYMPHOCYTE: 15272.67 CELLS/uL
  ABSOLUTE MONOCYTE: 230 CELLS/uL
  ABSOLUTE SEGMENTED NEUTROPHIL: 2109.67 CELLS/uL
  BASOPHIL: 0%
  EOSINOPHIL: 0.33%
  ERYTHROCYTE COUNT: 5.71 x10E6/uL
  HEMATOCRIT: 34.87%
  HEMOGLOBIN: 14.07 G/DL
  LEUKOCYTE COUNT: 17.67 x10E3/uL
  LYMPHOCYTE: 86.33%
  MEAN CORPUSCULAR HEMOGLOBIN: 24.67 pg
  MEAN CORPUSCULAR HEMOGLOBIN CONCENTRATION: 40.33 G/DL
  MEAN CORPUSCULAR VOLUME: 61.07 fL
  MONOCYTE: 1.33%
  NEUTROPHIL: 12%
  NUCLEATED RED BLOOD CELLS: 0 /100WBC
  PLATELET COUNT: 1192 x10E3/uL
  ALANINE AMINOTRANSFERASE: 71 u/L
  ALBUMIN: 4.37 G/DL
  ALKALINE PHOSPHATASE: 303 u/L
  ASPARTATE AMINOTRANSFERASE: 113.33 u/L
  BLOOD UREA NITROGEN: 18.67 mg/dL
  CARBON DIOXIDE: 27.67 mmol/L
  CHLORIDE: 103.33 MEQ/L
  CHOLESTEROL: 67.33 mg/dL
  CREATINE PHOSPHOKINASE: 298.67 u/L
  CREATININE: 0.19 mg/dL
  GLUCOSE: 164.33 mg/dL
  LACTATE DEHYDROGENASE: 269.33 u/L
  LIPASE: 10 u/L
  PHOSPHORUS: 14 mg/dL
  POTASSIUM: 6.25 MEQ/L
  SODIUM: 149.6 MEQ/L
  TOTAL BILIRUBIN: 0.2 mg/dL
  TOTAL PROTEIN: 5.8 G/DL
  URIC ACID: 1.67 mg/dL
